Key:
Test in all cases: KINOMEscan
Format in all cases: binding
[1] = biological target: T1, RPS6KA5(Kin.Dom.1-N-terminal) (Homo sapiens, UniProt O75582); settings: 1 uM
T1 construct: RPS6KA5(Kin.Dom.1-N-terminal); purchased Ambit KINOMEscan (DiscoverX)
In short: (§1)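 Binding assay, no enzymatic read-out; all compounds tested at 1 μM to find kinases whose substrate binding they inhibit.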

[2] = biological target: T2, SLK (Homo sapiens, UniProt Q9H2G2); settings: 1 uM
T2 construct: purchased Ambit KINOMEscan (DiscoverX)
In short: as §1

[3] = biological target: T3, EPHA5 (Homo sapiens, UniProt P54756); settings: EPHA5, 1 uM
T3 construct: purchased Ambit KINOMEscan (DiscoverX)
In short: as §1

[4] = biological target: T4, PHKG2 (Homo sapiens, UniProt P15735); settings: PHKG2, 1 uM
T4 construct: purchased Ambit KINOMEscan (DiscoverX)
In short: as §1

[5] = biological target: T5, AKT1 (Homo sapiens, UniProt P31749); settings: AKT1, 1 uM
T5 construct: purchased Ambit KINOMEscan (DiscoverX)
T5 sequence (P31749 whole entry): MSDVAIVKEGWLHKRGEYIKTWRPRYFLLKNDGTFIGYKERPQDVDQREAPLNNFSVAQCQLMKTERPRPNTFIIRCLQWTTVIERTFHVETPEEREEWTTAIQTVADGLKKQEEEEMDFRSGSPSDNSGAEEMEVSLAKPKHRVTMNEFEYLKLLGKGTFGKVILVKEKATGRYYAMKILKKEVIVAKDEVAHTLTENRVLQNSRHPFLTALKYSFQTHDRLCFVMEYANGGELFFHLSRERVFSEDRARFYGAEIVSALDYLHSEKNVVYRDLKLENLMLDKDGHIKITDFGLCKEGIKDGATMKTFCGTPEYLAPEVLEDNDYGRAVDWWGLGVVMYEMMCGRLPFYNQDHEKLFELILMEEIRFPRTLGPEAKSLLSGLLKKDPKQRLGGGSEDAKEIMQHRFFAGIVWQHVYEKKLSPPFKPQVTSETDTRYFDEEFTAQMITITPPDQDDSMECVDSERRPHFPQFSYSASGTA
In short: as §1

[6] = biological target: T6, NEK7 (Homo sapiens, UniProt Q8TDX7); settings: NEK7, 1 uM
T6 construct: purchased Ambit KINOMEscan (DiscoverX)
T6 sequence (Q8TDX7 whole entry): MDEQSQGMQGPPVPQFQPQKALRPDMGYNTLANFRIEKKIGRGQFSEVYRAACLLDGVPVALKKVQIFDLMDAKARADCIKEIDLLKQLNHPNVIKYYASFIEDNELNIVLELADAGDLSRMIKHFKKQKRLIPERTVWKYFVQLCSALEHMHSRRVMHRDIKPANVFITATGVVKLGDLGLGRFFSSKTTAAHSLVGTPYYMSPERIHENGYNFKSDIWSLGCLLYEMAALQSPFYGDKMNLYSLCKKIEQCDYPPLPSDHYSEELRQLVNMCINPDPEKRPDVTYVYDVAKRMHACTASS
In short: as §1

[7] = biological target: T7, KIT(L576P) (Homo sapiens, UniProt P10721, L576P); settings: 1 uM
T7 construct: purchased Ambit KINOMEscan (DiscoverX)
In short: as §1

[8] = biological target: T8, CDKL3 (Homo sapiens, UniProt Q8IVW4); settings: CDKL3, 1 uM
T8 construct: purchased Ambit KINOMEscan (DiscoverX)
T8 sequence (Q8IVW4 whole entry): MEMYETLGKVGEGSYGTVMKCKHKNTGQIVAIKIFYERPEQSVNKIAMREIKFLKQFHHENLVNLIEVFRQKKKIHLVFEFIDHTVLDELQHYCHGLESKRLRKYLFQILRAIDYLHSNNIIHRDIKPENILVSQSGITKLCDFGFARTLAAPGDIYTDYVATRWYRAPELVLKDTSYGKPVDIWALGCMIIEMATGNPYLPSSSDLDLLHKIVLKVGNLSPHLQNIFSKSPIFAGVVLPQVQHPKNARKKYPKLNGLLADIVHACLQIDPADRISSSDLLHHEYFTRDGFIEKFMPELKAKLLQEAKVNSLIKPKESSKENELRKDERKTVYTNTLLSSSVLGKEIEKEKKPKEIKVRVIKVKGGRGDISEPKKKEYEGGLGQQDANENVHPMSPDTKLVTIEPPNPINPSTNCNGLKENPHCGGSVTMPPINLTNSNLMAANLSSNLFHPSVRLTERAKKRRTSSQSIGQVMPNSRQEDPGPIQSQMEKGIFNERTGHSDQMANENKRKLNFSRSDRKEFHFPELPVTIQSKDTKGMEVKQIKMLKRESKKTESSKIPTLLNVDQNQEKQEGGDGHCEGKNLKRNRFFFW
In short: as §1

[9] = biological target: T9, PIK3CA(Q546K) (Homo sapiens, UniProt P42336, Q546K); settings: 1 uM
T9 construct: purchased Ambit KINOMEscan (DiscoverX)
T9 sequence (P42336 whole entry Q546K): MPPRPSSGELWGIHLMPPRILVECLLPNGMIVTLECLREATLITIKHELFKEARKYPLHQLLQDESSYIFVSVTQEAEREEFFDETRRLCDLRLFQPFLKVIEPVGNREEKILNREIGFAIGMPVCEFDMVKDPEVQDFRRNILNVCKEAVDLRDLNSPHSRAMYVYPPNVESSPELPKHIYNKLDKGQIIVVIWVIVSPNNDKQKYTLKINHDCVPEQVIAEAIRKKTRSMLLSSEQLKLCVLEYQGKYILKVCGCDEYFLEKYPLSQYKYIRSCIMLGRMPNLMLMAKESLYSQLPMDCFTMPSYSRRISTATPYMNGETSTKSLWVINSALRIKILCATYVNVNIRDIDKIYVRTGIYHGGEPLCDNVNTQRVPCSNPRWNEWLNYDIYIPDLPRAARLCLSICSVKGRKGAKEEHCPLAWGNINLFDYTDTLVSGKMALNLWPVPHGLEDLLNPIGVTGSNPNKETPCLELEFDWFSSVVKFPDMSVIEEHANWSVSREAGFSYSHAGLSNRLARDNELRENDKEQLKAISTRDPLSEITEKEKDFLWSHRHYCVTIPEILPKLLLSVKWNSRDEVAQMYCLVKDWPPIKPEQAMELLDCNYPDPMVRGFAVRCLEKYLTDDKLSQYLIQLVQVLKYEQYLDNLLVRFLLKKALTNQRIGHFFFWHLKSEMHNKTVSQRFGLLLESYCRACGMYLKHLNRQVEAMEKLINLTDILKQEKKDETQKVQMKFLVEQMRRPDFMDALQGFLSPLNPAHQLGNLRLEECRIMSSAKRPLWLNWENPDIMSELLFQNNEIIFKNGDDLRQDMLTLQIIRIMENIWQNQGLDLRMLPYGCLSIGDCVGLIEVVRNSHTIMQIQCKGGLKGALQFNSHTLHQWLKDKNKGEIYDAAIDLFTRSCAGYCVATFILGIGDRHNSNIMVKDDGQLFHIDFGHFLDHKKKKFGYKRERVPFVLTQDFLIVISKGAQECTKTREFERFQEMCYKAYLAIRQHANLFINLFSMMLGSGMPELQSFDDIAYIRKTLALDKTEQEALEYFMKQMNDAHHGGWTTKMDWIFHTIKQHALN
In short: as §1

[10] = biological target: T10, TNK1 (Homo sapiens, UniProt Q13470); settings: TNK1, 1 uM
T10 construct: purchased Ambit KINOMEscan (DiscoverX)
In short: as §1

[11] = biological target: T11, TAOK1 (Homo sapiens, UniProt Q7L7X3); settings: TAOK1, 1 uM
T11 construct: purchased Ambit KINOMEscan (DiscoverX)
T11 sequence (Q7L7X3 whole entry): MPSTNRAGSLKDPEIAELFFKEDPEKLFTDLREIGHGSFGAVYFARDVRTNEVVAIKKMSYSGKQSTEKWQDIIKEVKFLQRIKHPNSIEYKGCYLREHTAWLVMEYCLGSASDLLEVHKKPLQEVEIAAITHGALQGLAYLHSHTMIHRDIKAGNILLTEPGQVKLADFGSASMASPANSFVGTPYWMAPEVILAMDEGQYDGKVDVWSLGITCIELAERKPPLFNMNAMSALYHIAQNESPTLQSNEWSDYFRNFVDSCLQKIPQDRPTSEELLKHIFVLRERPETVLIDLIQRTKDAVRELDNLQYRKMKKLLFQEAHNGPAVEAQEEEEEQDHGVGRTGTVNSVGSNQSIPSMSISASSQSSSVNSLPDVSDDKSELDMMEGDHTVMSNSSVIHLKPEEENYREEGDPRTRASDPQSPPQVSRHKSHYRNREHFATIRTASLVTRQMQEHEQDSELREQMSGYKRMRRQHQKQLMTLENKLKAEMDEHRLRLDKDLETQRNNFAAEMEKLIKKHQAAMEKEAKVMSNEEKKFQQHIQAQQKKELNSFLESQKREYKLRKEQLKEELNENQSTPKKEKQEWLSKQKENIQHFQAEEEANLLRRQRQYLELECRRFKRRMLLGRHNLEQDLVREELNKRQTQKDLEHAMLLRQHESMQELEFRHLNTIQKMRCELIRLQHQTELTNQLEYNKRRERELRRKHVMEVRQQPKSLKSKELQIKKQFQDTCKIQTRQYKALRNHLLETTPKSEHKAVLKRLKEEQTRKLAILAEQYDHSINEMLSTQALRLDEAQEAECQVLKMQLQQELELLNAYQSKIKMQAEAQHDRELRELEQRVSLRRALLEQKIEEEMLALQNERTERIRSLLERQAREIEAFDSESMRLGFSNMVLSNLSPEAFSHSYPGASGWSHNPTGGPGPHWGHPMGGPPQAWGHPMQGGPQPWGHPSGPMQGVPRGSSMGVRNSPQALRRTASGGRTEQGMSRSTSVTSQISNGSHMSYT
In short: as §1

[12] = biological target: T12, NEK1 (Homo sapiens, UniProt Q96PY6); settings: for % binding compared to no inhibitor control: NEK1, 1 uM
T12 construct: purchased Ambit KINOMEscan (DiscoverX)
T12 sequence (Q96PY6 1-1258): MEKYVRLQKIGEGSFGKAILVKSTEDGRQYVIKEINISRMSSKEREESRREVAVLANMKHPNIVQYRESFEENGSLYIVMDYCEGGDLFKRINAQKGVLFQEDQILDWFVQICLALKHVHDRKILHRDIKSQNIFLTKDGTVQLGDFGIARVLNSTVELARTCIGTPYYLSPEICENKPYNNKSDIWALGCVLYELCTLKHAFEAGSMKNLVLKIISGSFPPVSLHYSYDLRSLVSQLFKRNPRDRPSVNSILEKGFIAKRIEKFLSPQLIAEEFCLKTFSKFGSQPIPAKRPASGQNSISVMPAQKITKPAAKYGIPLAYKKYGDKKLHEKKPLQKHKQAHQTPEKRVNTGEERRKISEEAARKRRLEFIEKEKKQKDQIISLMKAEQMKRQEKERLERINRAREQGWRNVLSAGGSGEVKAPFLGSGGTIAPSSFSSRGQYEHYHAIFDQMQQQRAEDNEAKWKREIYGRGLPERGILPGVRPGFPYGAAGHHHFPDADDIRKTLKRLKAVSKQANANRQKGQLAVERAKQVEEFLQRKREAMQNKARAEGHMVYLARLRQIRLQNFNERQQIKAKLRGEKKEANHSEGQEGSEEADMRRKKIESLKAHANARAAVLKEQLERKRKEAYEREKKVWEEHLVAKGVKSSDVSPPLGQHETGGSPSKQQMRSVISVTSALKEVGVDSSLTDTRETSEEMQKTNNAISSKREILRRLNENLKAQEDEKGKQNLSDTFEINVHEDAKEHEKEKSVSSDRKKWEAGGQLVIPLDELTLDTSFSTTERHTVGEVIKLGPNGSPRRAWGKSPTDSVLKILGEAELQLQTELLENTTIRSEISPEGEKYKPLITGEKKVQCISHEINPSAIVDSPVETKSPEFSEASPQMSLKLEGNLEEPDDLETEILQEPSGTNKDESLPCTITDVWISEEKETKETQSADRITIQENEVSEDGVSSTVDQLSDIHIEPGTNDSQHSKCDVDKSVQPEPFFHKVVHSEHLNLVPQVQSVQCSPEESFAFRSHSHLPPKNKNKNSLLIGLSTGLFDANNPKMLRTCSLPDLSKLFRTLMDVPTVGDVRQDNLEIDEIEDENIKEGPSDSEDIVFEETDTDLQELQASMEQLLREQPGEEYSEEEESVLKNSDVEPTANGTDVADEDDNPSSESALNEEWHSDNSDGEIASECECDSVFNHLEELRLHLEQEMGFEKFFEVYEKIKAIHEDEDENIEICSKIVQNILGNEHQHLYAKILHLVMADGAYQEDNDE
In short: as §1

[13] = biological target: T13, EPHB6 (Homo sapiens, UniProt O15197); settings: EPHB6, 1 uM
T13 construct: purchased Ambit KINOMEscan (DiscoverX)
In short: as §1

[14] = biological target: T14, MELK (Homo sapiens, UniProt Q14680); settings: 1 uM
T14 construct: purchased Ambit KINOMEscan (DiscoverX)
In short: as §1

[15] = biological target: T15, TLK1 (Homo sapiens, UniProt Q9UKI8); settings: TLK1, 1 uM
T15 construct: purchased Ambit KINOMEscan (DiscoverX)
In short: as §1

[16] = biological target: T16, CHEK2 (Homo sapiens, UniProt O96017); settings: CHEK2, 1 uM
T16 construct: purchased Ambit KINOMEscan (DiscoverX)
In short: as §1

[17] = biological target: T17, MST3 (Homo sapiens, UniProt Q9Y6E0); settings: MST3, 1 uM
T17 construct: purchased Ambit KINOMEscan (DiscoverX)
In short: as §1

[18] = biological target: T18, MEK6 (Homo sapiens, UniProt P52564); settings: MEK6, 1 uM
T18 construct: purchased Ambit KINOMEscan (DiscoverX)
In short: as §1

[19] = biological target: T19, GSK3B (Homo sapiens, UniProt P49841); settings: for % binding compared to no inhibitor control: GSK3B, 1 uM
T19 construct: purchased Ambit KINOMEscan (DiscoverX)
T19 sequence (P49841 whole entry): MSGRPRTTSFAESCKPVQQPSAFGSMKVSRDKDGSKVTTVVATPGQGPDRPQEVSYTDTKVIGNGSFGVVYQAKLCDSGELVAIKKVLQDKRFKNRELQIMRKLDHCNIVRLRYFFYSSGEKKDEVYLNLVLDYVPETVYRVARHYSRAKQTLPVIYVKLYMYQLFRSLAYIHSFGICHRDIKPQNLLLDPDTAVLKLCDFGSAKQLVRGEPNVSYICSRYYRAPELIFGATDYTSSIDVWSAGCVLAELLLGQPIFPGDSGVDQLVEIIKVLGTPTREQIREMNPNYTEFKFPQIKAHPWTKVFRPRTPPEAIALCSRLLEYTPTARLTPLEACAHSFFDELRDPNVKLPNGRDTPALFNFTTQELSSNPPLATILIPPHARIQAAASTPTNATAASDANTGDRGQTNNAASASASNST
In short: as §1

[20] = biological target: T20, ERK1 (Homo sapiens, UniProt P27361); settings: ERK1, 1 uM
T20 construct: purchased Ambit KINOMEscan (DiscoverX)
In short: as §1

[21] = biological target: T21, CSNK1E (Homo sapiens, UniProt P49674); settings: 1 uM
T21 construct: purchased Ambit KINOMEscan (DiscoverX)
In short: as §1

[22] = biological target: T22, CAMK2D (Homo sapiens, UniProt Q13557); settings: 1 uM
T22 construct: purchased Ambit KINOMEscan (DiscoverX)
T22 sequence (Q13557 whole entry): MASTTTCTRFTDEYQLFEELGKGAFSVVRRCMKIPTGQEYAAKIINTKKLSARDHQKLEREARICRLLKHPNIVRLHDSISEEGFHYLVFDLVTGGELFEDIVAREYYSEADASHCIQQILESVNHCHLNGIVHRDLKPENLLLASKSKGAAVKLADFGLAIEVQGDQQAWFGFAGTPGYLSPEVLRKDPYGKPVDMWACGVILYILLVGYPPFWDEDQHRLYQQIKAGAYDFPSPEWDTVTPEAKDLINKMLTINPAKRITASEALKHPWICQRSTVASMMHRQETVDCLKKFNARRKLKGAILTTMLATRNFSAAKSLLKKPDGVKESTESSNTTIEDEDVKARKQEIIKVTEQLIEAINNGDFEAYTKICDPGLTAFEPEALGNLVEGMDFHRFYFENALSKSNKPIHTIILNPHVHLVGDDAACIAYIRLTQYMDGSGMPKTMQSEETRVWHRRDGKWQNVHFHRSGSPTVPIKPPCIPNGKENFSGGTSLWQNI
In short: as §1

[23] = biological target: T23, CAMK1D (Homo sapiens, UniProt Q8IU85); settings: 1 uM
T23 construct: purchased Ambit KINOMEscan (DiscoverX)
T23 sequence (Q8IU85 whole entry): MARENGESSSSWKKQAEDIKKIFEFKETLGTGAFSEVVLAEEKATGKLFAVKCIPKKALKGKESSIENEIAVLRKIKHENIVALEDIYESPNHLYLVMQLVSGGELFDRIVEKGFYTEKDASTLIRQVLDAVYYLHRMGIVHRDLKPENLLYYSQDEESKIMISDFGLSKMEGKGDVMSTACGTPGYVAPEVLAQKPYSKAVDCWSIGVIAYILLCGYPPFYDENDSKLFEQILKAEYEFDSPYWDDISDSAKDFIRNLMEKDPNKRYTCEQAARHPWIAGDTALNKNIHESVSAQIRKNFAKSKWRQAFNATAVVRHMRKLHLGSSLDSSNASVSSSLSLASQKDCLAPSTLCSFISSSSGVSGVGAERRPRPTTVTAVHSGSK
In short: as §1

| Compound | % binding compared to no inhibitor control [1] [%] | % binding compared to no inhibitor control [2] [%] | % binding compared to no inhibitor control [3] [%] | % binding compared to no inhibitor control [4] [%] | % binding compared to no inhibitor control [5] [%] | % binding compared to no inhibitor control [6] [%] | % binding compared to no inhibitor control [7] [%] | % binding compared to no inhibitor control [8] [%] | % binding compared to no inhibitor control [9] [%] | % binding compared to no inhibitor control [10] [%] | % binding compared to no inhibitor control [11] [%] | % binding compared to no inhibitor control [12] [%] | % binding compared to no inhibitor control [13] [%] | % binding compared to no inhibitor control [14] [%] | % binding compared to no inhibitor control [15] [%] | % binding compared to no inhibitor control [16] [%] | % binding compared to no inhibitor control [17] [%] | % binding compared to no inhibitor control [18] [%] | % binding compared to no inhibitor control [19] [%] | % binding compared to no inhibitor control [20] [%] | further results |
| --- | --- | --- | --- | --- | --- | --- | --- | --- | --- | --- | --- | --- | --- | --- | --- | --- | --- | --- | --- | --- | --- |
| COc1ccc(-c2cc3nccn3c(Nc3ncccc3C(N)=O)n2)cc1OC.Cl.Cl [BAY61-3606, 2-[7-(3,4-dimethoxyphenyl)-imidazo [1,2-c]pyrimidin-5-ylamino] nicotinamide dihydrochloride, reference compound] | 90 | 58 | 77 | 26 | 93 | 60 | 0.4 | 100 | 87 | 82 | 95 | 27 | 17 | 87 | 89 | 100 | 56 | 40 | 39 | 100 | % inhibition ATP binding ([12]; NEK1, KINOMEscan, 1 μM): 73%; % inhibition ATP binding ([19]; GSK3β, KINOMEscan, 1 μM): 61%; % binding compared to no inhibitor control [21]: 94%; % binding compared to no inhibitor control [22]: 72%; % binding compared to no inhibitor control [23]: 72% |
| COc1ccccc1Nc1nc(-c2ccc(OC)c(OC)c2)cc2nccn12 [BAY derivative 6] | 89 | 28 | 100 | 100 | 91 | 100 | 38 | 100 | 100 | 56 | 100 | 91 | 56 | 91 | 57 | 97 | 100 | 97 | 100 | 100 | % binding compared to no inhibitor control [21]: 100%; % binding compared to no inhibitor control [22]: 100%; % binding compared to no inhibitor control [23]: 100% |

From PMC3399817 (PLoS ONE, 2012)
